Experimental findings from patent US20220348572A1, “BRIDGED HETEROCYCLYL-SUBSTITUTED PYRIMIDINE COMPOUND, PREPARATION METHOD THEREFOR, AND PHARMACEUTICAL USE THEREOF” (The National Institutes of Pharmaceutical R&D Co., Ltd., priority 2019, published 2022) are described below.

The structures appear in SMILES notation.

The nature of data set [1]: Pharmacokinetic study in rats after oral administration. The data set is classed as in vivo, SD rats. The following applies: for pharmacokinetic parameters (in words): oral administration in SD rats; for AUC(0-t) / Cmax: rat, male SD rats, oral 5 mg/kg, plasma. The procedure:
Experimental Example 5: Pharmacokinetic Studies of the Compounds of Example 1, Example 1-a, Example 1-b and Example 3 in Rats In order to investigate the blood concentration and pharmacokinetic parameters of the compounds of the present invention after oral administration, the corresponding LC/MS/MS assay and plasma treatment methods were developed for the compounds of the Experimental Examples. […] Male SD rats were orally administered at a dose of 5 mg/kg. Blood was orbitally collected and anticoagulated with sodium heparin. The plasma was deproteinated with acetonitrile. The samples were analyzed by LC/MS/MS method. Wherein, AUC<1000 μg/L*h is shown as C, AUC between 1000-2000 μg/L*h is shown as B, AUC>2000 μg/L*h is shown as A; Cmax<600 μg/L is shown as C, Cmax between 600-900 μg/L is shown as B, and Cmax>900 μg/L is shown as A.

The next data set concerns the target T1, JAK1 kinase (Homo sapiens, UniProt P23458).
T1 construct: purchased Invitrogen PV4744
Kind of data set: In vitro inhibitory activity on JAK1 kinase (ADP-Glo Kinase Assay). The format is biochemical. The conditions noted are these: JAK1 kinase 4 nM, 1 mM ATP. Put shortly: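 JAK1 (4 nM final) preincubated with compound 15 min at 25° C., then substrate mix (1 mM ATP, IRS1 0.05 mg/ml) added for 60 min at 25° C. ADP-Glo luminescence read-out; top concentration 10 μM, 3-fold, 10 points, duplicates; IC50 reported in ranged classes.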

Another data set deals with T2, TYK2 kinase (Homo sapiens, UniProt P29597).
T2 sequence (P29597 897-1187 limits assumed): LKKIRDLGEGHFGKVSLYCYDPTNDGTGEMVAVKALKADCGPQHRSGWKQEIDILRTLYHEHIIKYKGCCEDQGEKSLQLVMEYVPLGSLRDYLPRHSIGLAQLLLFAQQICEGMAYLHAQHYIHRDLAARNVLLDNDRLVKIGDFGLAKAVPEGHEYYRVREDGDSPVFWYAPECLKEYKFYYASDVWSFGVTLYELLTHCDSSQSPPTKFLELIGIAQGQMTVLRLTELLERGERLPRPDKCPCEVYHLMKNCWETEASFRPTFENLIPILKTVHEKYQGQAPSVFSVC
The data set can be described thus: In vitro inhibitory activity on Tyk2 kinase (ADP-Glo Kinase Assay). The data set is classed as biochemical. The following applies: TYK2 kinase 4 nM, 1 mM ATP. The procedure: Test Example 2: Determination of In Vitro Inhibitory Activity of the Compounds of the Present Invention on Tyk2 Kinase Experimental materials: TYK2 (Invitrogen, PV4790), ATP (Promega, V915B), ADP-Glo Kinase Assay (Promega, V9101), IRS1 (Signalchem, 140-58-1000). Sample preparation: The compounds of the present invention and the control product were dissolved in DMSO solvent respectively to formulate into 10 mM initial liquid. The maximum concentration of the compound was 10 μM, 3-fold dilution, 10 concentration gradients, and duplicate wells for each concentration gradient. Experimental process: 0.1 μL of the compound to be tested was transferred into a 384 reaction plate (PE, 6007290) via Echo and centrifuged at 1000 rpm/min for 1 min. 5 μL TYK2 kinase (final concentration of 4 nM) was transferred into the 384 reaction plate, which was then centrifuged at 1000 rpm/min for 1 min, and incubated at 25° C. for 15 min. 5 μL substrate mixture (1 mM ATP, IRS1 0.05 mg/ml, kinase buffer solution) was transferred into the 384 reaction plate, which was then centrifuged at 1000 rpm/min for 1 min, and incubated at 25° C. for 60 min. 10 μL ADP-Glo was transferred into the 384 reaction plate, which was then centrifuged at 1000 rpm/min for 1 min, and incubated at 25° C. for 40 min. 20 μL test solution was transferred into the 384 reaction plate, which was centrifuged at 1000 rpm/min for 1 min and incubated at 25° C. for 40 min. RLU (Relative luminescence unit) signal was read by using an Envision multifunctional plate reader. The signal intensity was used to characterize the degree of the kinase activity. […] IC50 value of 0-100 nM is shown as A, IC50 value of 100-300 nM is shown as B, IC50 value of 300-1000 nM is shown as C, and IC50 value which is greater than 1000 nM is shown as D. NT means not tested.

T1 sequence (P23458 866-1154 limits assumed): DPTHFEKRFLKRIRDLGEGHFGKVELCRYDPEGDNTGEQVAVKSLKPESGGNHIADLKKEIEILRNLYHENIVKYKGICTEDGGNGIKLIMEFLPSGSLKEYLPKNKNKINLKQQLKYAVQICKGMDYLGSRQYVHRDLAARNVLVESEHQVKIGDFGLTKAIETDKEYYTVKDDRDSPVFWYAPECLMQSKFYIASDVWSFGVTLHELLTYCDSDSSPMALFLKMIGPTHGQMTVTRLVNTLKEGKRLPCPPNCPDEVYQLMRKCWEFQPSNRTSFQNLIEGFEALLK

The AUC(0-t) is exposure summed from dosing to a finite time, without extrapolation to infinity. A low value points to low exposure. Usually Cmax stands for the highest concentration seen after dosing. One may read the IC50 as the midpoint of a concentration-inhibition curve. High values mean weaker potency in that assay, low ones greater potency in that assay. Consider `Cn1cc(Nc2nccc(C3=C[C@H]4CC[C@@H](C3)N4C(=O)[C@@H]3CC3(F)F)n2)cn1` [Compound 1-b, ((S)-2,2-difluorocyclopropyl)((1R,5S)-3-(2-((1-methyl-1H-pyrazol-4-yl)amino)pyrimidin-4-yl)-8-azabicyclo[3.2.1]oct-2-en-8-yl)methanone], for which, in data set [1], the “pharmacokinetic parameters (in words)” value is given as “good pharmacokinetic parameters”, the area under the curve AUC(0-t) was above 2000 ng·h/mL and the Cmax is above 900 ng/mL. The IC50 on JAK1 kinase was below 100 nM. Moreover, the 50% inhibitory concentration (IC50) against TYK2 kinase is below 100 nM.

Take `Cn1cc(Nc2nccc(C3=CC4CCC(C3)N4C(=O)NCC(F)(F)F)n2)cn1` (stereo not drawn) [Compound 3, 3-(2-((1-methyl-1H-pyrazol-4-yl)amino)pyrimidin-4-yl)-N-(2,2,2-trifluoroethyl)-8-azabicyclo[3.2.1]oct-2-ene-8-carboxamide]: in data set [1], the “pharmacokinetic parameters (in words)” value is “good pharmacokinetic parameters”, the exposure AUC(0-t) is 1000 to 2000 ng·h/mL and the Cmax fell in the range of 600 to 900 ng/mL. The IC50 on JAK1 kinase lay within 100 to 300 nM. This compound also had an IC50 against TYK2 kinase below 100 nM.

On to `Cn1cc(Nc2nccc(C3=CC4CCC(C3)N4C(=O)[C@@H]3CC3(F)F)n2)cn1` (stereo partly drawn) [Compound 1, ((S)-2,2-difluorocyclopropyl)(3-(2-((1-methyl-1H-pyrazol-4-yl)amino)pyrimidin-4-yl)-8-azabicyclo[3.2.1]oct-2-en-8-yl)methanone], for which, in data set [1], the “pharmacokinetic parameters (in words)” value is listed as “good pharmacokinetic parameters”, the AUC(0-t) was above 2000 ng·h/mL and the Cmax is above 900 ng/mL. This compound also had a half-maximal inhibitory concentration (IC50) at JAK1 kinase below 100 nM. For the same compound, at TYK2 kinase, the 50% inhibitory concentration (IC50) is below 100 nM.
